Test results taken from paper PMC2632775 (Nuclear medicine and biology, 2008).
Read-outs that look alike come from different tables or passages of the source.

Assays:
[1] = target: T1, VMAT2 binding sites in the pancreas (Rattus norvegicus, UniProt Q01827); assay: Blocking studies of pancreatic uptake in rats; format: in vivo; conditions: for Pancreas uptake, Pretreatment / Blood uptake, Pretreatment: n=5, ± SD
[2] = rats, avg ± SD, cited from earlier work
[3] = target: T1, VMAT2 binding sites in the pancreas; conditions: rats, 60 min after tracer injection, ± SD, cited from earlier work
[4] = target: VMAT2 binding sites of beta cells in the pancreas (Rattus norvegicus, UniProt Q01827); conditions: rats, PET, post iv injection
[5] = rats, iv
VMAT2 = VMAT2 (Rattus norvegicus, UniProt Q01827); assay: In vitro autoradiography using rat brain sections; format: binding; conditions: preliminary, data not shown
[6] = 60 min after tracer injection, no pretreatment, n=4, ± SD
[7] = 60 min after tracer injection, pretreatment of (+)2 3.5 mg/kg iv 5 min prior
[8] = pretreatment of (+)2 3.5 mg/kg iv 5 min prior
[9] = 30 min after tracer injection, no pretreatment, n=4, ± SD
[10] = 30 min after tracer injection, pretreatment of (+)DTBZ 3.3 mg/kg iv 5 min prior

T1 sequence (Q01827 whole entry): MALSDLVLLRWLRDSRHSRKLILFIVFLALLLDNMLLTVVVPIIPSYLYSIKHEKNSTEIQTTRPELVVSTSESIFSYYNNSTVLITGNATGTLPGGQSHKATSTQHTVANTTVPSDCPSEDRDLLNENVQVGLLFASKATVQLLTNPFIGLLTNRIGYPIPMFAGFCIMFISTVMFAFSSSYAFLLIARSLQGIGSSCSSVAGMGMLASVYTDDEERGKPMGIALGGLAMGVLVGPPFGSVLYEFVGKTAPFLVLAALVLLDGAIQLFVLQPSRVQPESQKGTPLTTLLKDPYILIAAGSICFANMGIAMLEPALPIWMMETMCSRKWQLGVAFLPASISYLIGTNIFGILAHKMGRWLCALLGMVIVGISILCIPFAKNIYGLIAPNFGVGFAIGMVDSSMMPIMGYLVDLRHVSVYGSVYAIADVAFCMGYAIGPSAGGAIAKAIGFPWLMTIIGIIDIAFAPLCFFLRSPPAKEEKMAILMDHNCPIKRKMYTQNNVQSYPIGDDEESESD
VMAT2 binding sites of beta cells in the pancreas, sequence (Q01827 whole entry): as above
VMAT2, sequence (Q01827 whole entry): as above

COc1cc2c(cc1OCCC[18F])CCN1CC(CC(C)C)C(O)CC21 (stereo not drawn) [[^18F](+)2, [^18F](−)-2-Hydroyxl-3-isobutyl-9-(3-fluoropropoxy)-10-methoxy-2,3,4,6,7, 11b-hexahydro-1H-pyrido[2,1-a]isoquinoline]
Pancreas uptake, Control [1, 6]: 2.19 %ID/g | Pancreas uptake, Pretreatment [1, 7]: 0.32 %ID/g | Blood uptake ([2]; 2 min): 0.26 ± 0.03 %ID/g | Brain uptake ([2]; 2 min): 0.71 ± 0.05 %ID/g | Heart uptake ([2]; 2 min): 0.71 ± 0.07 %ID/g | Kidney uptake ([2]; 2 min): 2.10 ± 0.17 %ID/g | Liver uptake ([2]; 2 min): 3.53 ± 0.56 %ID/g | Lung uptake ([2]; 2 min): 0.94 ± 0.04 %ID/g | Muscle uptake ([2]; 2 min): 0.14 ± 0.03 %ID/g | Pancreas uptake ([2]; 2 min): 2.51 ± 0.22 %ID/g | Skin uptake ([2]; 2 min): 0.23 ± 0.05 %ID/g | Spleen uptake ([2]; 2 min): 1.46 ± 0.15 %ID/g | Blood uptake ([2]; 30 min): 0.23 ± 0.06 %ID/g | Brain uptake ([2]; 30 min): 0.62 ± 0.08 %ID/g | Heart uptake ([2]; 30 min): 0.41 ± 0.03 %ID/g | Kidney uptake ([2]; 30 min): 1.06 ± 0.06 %ID/g | Liver uptake ([2]; 30 min): 2.82 ± 0.24 %ID/g | Lung uptake ([2]; 30 min): 0.69 ± 0.03 %ID/g | Muscle uptake ([2]; 30 min): 0.17 ± 0.02 %ID/g | Pancreas uptake ([2]; 30 min): 5.50 ± 0.97 %ID/g | Skin uptake ([2]; 30 min): 0.28 ± 0.01 %ID/g | Spleen uptake ([2]; 30 min): 1.03 ± 0.18 %ID/g | Blood uptake ([2]; 60 min): 0.18 ± 0.02 %ID/g | Brain uptake ([2]; 60 min): 0.42 ± 0.04 %ID/g | Heart uptake ([2]; 60 min): 0.30 ± 0.10 %ID/g | Kidney uptake ([2]; 60 min): 0.84 ± 0.09 %ID/g | Liver uptake ([2]; 60 min): 2.47 ± 0.30 %ID/g | Lung uptake ([2]; 60 min): 0.54 ± 0.14 %ID/g | Muscle uptake ([2]; 60 min): 0.13 ± 0.01 %ID/g | Pancreas uptake ([2]; 60 min): 4.98 ± 0.24 %ID/g | Skin uptake ([2]; 60 min): 0.23 ± 0.04 %ID/g | Spleen uptake ([2]; 60 min): 0.83 ± 0.18 %ID/g | Blood uptake ([2]; 120 min): 0.12 ± 0.03 %ID/g | Brain uptake ([2]; 120 min): 0.35 ± 0.02 %ID/g | Heart uptake ([2]; 120 min): 0.22 ± 0.01 %ID/g | Kidney uptake ([2]; 120 min): 0.55 ± 0.06 %ID/g | Liver uptake ([2]; 120 min): 1.47 ± 0.13 %ID/g | Lung uptake ([2]; 120 min): 0.35 ± 0.03 %ID/g | Muscle uptake ([2]; 120 min): 0.10 ± 0.01 %ID/g | Pancreas uptake ([2]; 120 min): 2.76 ± 0.61 %ID/g | Skin uptake ([2]; 120 min): 0.16 ± 0.02 %ID/g | Spleen uptake ([2]; 120 min): 0.48 ± 0.04 %ID/g | Blood uptake, Control ([3]; no pretreatment): 0.20 ± 0.02 %ID/g | Pancreas uptake, Control ([3]; no pretreatment): 4.93 ± 0.49 %ID/g | Blood uptake, Pretreatment [3, 8]: 0.26 ± 0.04 %ID/g | Pancreas uptake, Pretreatment [3, 8]: 1.11 ± 0.07 %ID/g

COc1cc2c(cc1OCCC[18F])CCN1CC(CC(C)C)C(C3CO3)CC21 (stereo not drawn) [[^18F](+)4] [[^18F](+)-2-Oxiranyl-3-isobutyl-9-(3-fluoropropoxy)-10-methoxy-2,3,4,6,7, 11b-hexahydro-1H-pyrido[2,1-a]isoquinoline]
Pancreas uptake, Control [1, 6]: 2.19 ± 0.37 %ID/g | Blood uptake, Pretreatment [1, 7]: 0.06 ± 0.01 %ID/g | Pancreas uptake, Pretreatment [1, 7]: 0.32 ± 0.07 %ID/g | Time of peak uptake and retention in the pancreas [4]: around 60 min | Blood uptake ([5]; 2 min, n=3): 0.27 %ID/g | Bone uptake ([5]; 2 min, n=3): 0.29 %ID/g | Brain uptake ([5]; 2 min, n=3): 0.95 %ID/g | Heart uptake ([5]; 2 min, n=3): 0.48 %ID/g | Kidney uptake ([5]; 2 min, n=3): 4.60 %ID/g | Liver uptake ([5]; 2 min, n=3): 3.28 %ID/g | Lung uptake ([5]; 2 min, n=3): 0.79 %ID/g | Muscle uptake ([5]; 2 min, n=3): 1.00 %ID/g | Pancreas uptake ([5]; 2 min, n=3): 1.64 %ID/g | Skin uptake ([5]; 2 min, n=3): 0.21 %ID/g | Spleen uptake ([5]; 2 min, n=3): 1.36 %ID/g | Blood uptake ([5]; 30 min, n=3): 0.15 %ID/g | Brain uptake ([5]; 30 min, n=3): 0.30 %ID/g | Heart uptake ([5]; 30 min, n=3): 0.11 %ID/g | Kidney uptake ([5]; 30 min, n=3): 3.59 %ID/g | Liver uptake ([5]; 30 min, n=3): 1.02 %ID/g | Lung uptake ([5]; 30 min, n=3): 0.48 %ID/g | Pancreas uptake ([5]; 30 min, n=3): 1.96 %ID/g | Skin uptake ([5]; 30 min, n=3): 0.14 %ID/g | Spleen uptake ([5]; 30 min, n=3): 0.26 %ID/g | Blood uptake ([5]; 60 min, n=7): 0.10 %ID/g | Bone uptake ([5]; 60 min, n=7): 0.23 %ID/g | Brain uptake ([5]; 60 min, n=7): 0.32 %ID/g | Heart uptake ([5]; 60 min, n=7): 0.07 %ID/g | Kidney uptake ([5]; 60 min, n=7): 2.21 %ID/g | Liver uptake ([5]; 60 min, n=7): 0.67 %ID/g | Lung uptake ([5]; 60 min, n=7): 0.14 %ID/g | Muscle uptake ([5]; 60 min, n=7): 0.04 %ID/g | Pancreas uptake ([5]; 60 min, n=7): 2.68 %ID/g | Skin uptake ([5]; 60 min, n=7): 0.09 %ID/g | Spleen uptake ([5]; 60 min, n=7): 0.16 %ID/g | Blood uptake ([5]; 120 min, n=7): 0.04 %ID/g | Bone uptake ([5]; 120 min, n=7): 0.22 %ID/g | Brain uptake ([5]; 120 min, n=7): 0.24 %ID/g | Heart uptake ([5]; 120 min, n=7): 0.02 %ID/g | Kidney uptake ([5]; 120 min, n=7): 1.58 %ID/g | Liver uptake ([5]; 120 min, n=7): 0.54 %ID/g | Lung uptake ([5]; 120 min, n=7): 0.05 %ID/g | Muscle uptake ([5]; 120 min, n=7): 0.02 %ID/g | Pancreas uptake ([5]; 120 min, n=7): 1.33 %ID/g | Skin uptake ([5]; 120 min, n=7): 0.04 %ID/g | Spleen uptake ([5]; 120 min, n=7): 0.08 %ID/g | Blood uptake ([5]; 240 min, n=4): 0.02 %ID/g | Bone uptake ([5]; 240 min, n=4): 0.27 %ID/g | Brain uptake ([5]; 240 min, n=4): 0.28 %ID/g | Heart uptake ([5]; 240 min, n=4): 0.01 %ID/g | Kidney uptake ([5]; 240 min, n=4): 2.01 %ID/g | Liver uptake ([5]; 240 min, n=4): 0.54 %ID/g | Lung uptake ([5]; 240 min, n=4): 0.03 %ID/g | Muscle uptake ([5]; 240 min, n=4): 0.01 %ID/g | Pancreas uptake ([5]; 240 min, n=4): 0.81 %ID/g | Skin uptake ([5]; 240 min, n=4): 0.02 %ID/g | Spleen uptake ([5]; 240 min, n=4): 0.04 %ID/g | Pancreas uptake, Pretreatment [3, 8]: 1.11 %ID/g

COc1cc2c(cc1OCCC[18F])CCN1CC(CC(C)C)C(C3CO3)CC21 (stereo not drawn) [[^18F](−)4] [[^18F](−)-2-Oxiranyl-3-isobutyl-9-(3-fluoropropoxy)-10-methoxy-2,3,4,6,7, 11b-hexahydro-1H-pyrido[2,1-a]isoquinoline]
Displaceability of pancreas uptake ([1]; 30 min, iv pretreatment of (+)DTBZ 3.3 mg/kg 5 min prior): non-displaceable | Blood uptake, Control [1, 9]: 0.07 ± 0.00 %ID/g | Pancreas uptake, Control [1, 9]: 0.22 ± 0.02 %ID/g | Blood uptake, Pretreatment [1, 10]: 0.12 ± 0.03 %ID/g | Pancreas uptake, Pretreatment [1, 10]: 0.22 ± 0.04 %ID/g | Labeling of rat brain sections (in vitro autoradiography) (VMAT2): no specific binding in any brain region
